Legend:
[1] = system: genotype 1b HCV replicon in Huh-7 cells; experiment: HCV replicon luciferase assay; type: cell-based, HCV genotype 1b; conditions: Hepatitis C virus, 72 h; Huh-7 genotype 1b replicon, Renilla luciferase, 3 days incubation
Description: The cell lines used to evaluate compounds consist of a human hepatocyte derived cell line (Huh-7) that constitutively expresses a genotype 1b HCV replicon containing a Renilla luciferase reporter gene. These cells were maintained in Dulbecco's modified Eagle medium (DMEM) containing 10% FBS, 100 U/mL penicillin/streptomycin and 1.0 mg/mL G418.
HCV Replicon Luciferase Assay.
To evaluate compound efficacy, titrated compounds were transferred to sterile 384-well tissue culture treated plates, and the plates were seeded with HCV replicon cells (50 μL at a density of 2.4×10^3 cells/well) in DMEM containing 4% FBS (final DMSO concentration at 0.5%). After 3 days incubation at 37° C., cells were analyzed for Renilla Luciferase activity using the EnduRen substrate (Promega cat #E6485) according to the manufacturer's directions. Briefly, the EnduRen substrate was diluted in DMEM and then added to the plates to a final concentration of 7.5 μM. The plates were incubated for at least 1 h at 37° C. then read on a Viewlux Imager (PerkinElmer) using a luminescence program. The 50% effective concentration (EC50) was calculated using the four-parameter logistic formula noted above.

[2] = biological target: HCV NS5B RdRp, genotype 1b (Hepatitis C virus genotype 1b (isolate Con1) (HCV), UniProt Q9WMX2); experiment: HCV NS5B RdRp enzyme assay; type: biochemical, HCV genotype 1b
Description: HCV NS5B RdRp Cloning, Expression, and Purification.
The cDNA encoding the NS5B protein of HCV, genotype 1b, was cloned into the pET21a expression vector. The protein was expressed with an 18 amino acid C-terminal truncation to enhance the solubility. The E. coli competent cell line BL21(DE3) was used for expression of the protein. Cultures were grown at 37° C. for ˜4 hours until the cultures reached an optical density of 2.0 at 600 nm. The cultures were cooled to 20° C. and induced with 1 mM IPTG. Fresh ampicillin was added to a final concentration of 50 μg/mL and the cells were grown overnight at 20° C.
The lysis buffer consisted of 20 mM Tris-HCl, pH 7.4, 500 mM NaCl, 0.5% triton X-100, 1 mM DTT, 1 mM EDTA, 20% glycerol, 0.5 mg/mL lysozyme, 10 mM MgCl2, 15 ug/mL deoxyribonuclease I, and Complete TM protease inhibitor tablets (Roche). After addition of the lysis buffer, frozen cell pellets were resuspended using a tissue homogenizer. […]
After incubating for at least 15 minutes, plates were read on an Amersham LEADseeker multimodality imaging system.
IC50 values for compounds were determined using ten different [I]. IC50 values were calculated from the inhibition using the four-parameter logistic formula y=A+((B−A)/(1+((C/x)^D))), where A and B denote minimal and maximal % inhibition, respectively, C is the IC50, D is hill slope and x represents compound concentration.

HCV [3] = conditions: cited from earlier work
HCV [4] = conditions: combination therapy; cited from earlier work

Sequence of HCV NS5B RdRp, genotype 1b (Q9WMX2 2420-2992): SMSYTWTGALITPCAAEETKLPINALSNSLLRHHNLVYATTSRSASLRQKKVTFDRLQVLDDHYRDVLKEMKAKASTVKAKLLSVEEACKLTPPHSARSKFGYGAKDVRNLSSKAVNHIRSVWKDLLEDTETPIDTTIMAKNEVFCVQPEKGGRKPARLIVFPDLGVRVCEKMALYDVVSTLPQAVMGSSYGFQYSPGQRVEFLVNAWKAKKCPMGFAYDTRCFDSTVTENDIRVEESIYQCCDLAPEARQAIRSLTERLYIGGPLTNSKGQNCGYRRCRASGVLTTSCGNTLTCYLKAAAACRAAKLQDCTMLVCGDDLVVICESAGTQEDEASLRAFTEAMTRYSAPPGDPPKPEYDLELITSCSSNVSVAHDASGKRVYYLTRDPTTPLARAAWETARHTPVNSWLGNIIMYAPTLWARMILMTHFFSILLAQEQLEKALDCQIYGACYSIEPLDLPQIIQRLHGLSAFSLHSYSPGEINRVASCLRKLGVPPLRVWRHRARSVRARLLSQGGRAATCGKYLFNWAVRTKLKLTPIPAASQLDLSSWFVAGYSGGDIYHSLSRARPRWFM

Molecule | EC50 [1] [nM] | other results
CNC(=O)c1c(-c2ccc(F)cc2)oc2ccc(-c3cc(C(=O)NC4(c5ncccn5)CNC4)c(OC)cc3C)c(F)c12 | 900 | –
CNC(=O)c1c(-c2ccc(F)cc2)oc2ccc(-c3cc(C(=O)NC4(c5ncccn5)CNC4)cc(F)c3C)c(F)c12 | 390 | IC50 [2]: 330 nM
CNC(=O)c1c(-c2ccc(F)cc2)oc2ccc(-c3cc(C(=O)NC4(c5ncccn5)CN(C)C4)ccc3C)c(F)c12 | 2460 | IC50 [2]: 780 nM
CNC(=O)c1c(-c2ccc(F)cc2)oc2ccc(-c3cc(C(=O)NC4(c5ncccn5)CN(C)C4)c(OC)cc3C)c(F)c12 | 1190 | –
CNC(=O)c1c(-c2ccc(F)cc2)oc2ccc(-c3cc(C(=O)NC4(c5ncccn5)CNC4)ccc3C)c(F)c12 [4-fluoro-2-(4-fluorophenyl)-N-methyl-5-(2-methyl-5-(3-(pyrimidin-2-yl)azetidin-3-ylcarbamoyl)phenyl)benzofuran-3-carboxamide] | 4330 | –
CNC(=O)c1c(-c2ccc(F)cc2)oc2ccc(-c3cc(C(=O)NC4(c5ncccn5)CN(C)C4)cc(F)c3C)c(F)c12 [4-fluoro-5-(3-fluoro-2-methyl-5-(1-methyl-3-(pyrimidin-2-yl)azetidin-3-ylcarbamoyl)phenyl)-2-(4-fluorophenyl)-N-methylbenzofuran-3-carboxamide] | 820 | –
CNC(=O)c1c(-c2ccc(F)cc2)oc2cc(N(CCO)S(C)(=O)=O)c(C3CC3)cc12 [HCV-796] | – | toxicity during extended dosing (HCV [3]; extended dosing of the combination regimens with interferon and ribavirin): hepatic toxicity; HCV RNA levels in patients (HCV [3]; patients, single agent: transient decrease then rebound): reduce HCV RNA levels
alpha-interferon and ribavirin | – | sustained efficacy, share of patients (HCV [4]): 40%
